Source: ChEMBL document CHEMBL4813985, “Lead optimization generates selenium-containing miconazole CYP51 inhibitors with improved pharmacological profile for the treatment of fungal infections” (Eur J Med Chem, 2021)
Values after ≈ are worked out from the molar mass of the structure shown. Active and inactive are the calls of the source. The calls are words filed in the database; no cut-off is given here.

Assays:
[1] = target: T1, Lanosterol 14-alpha demethylase (Candida albicans (strain SC5314 / ATCC MYA-2876) (Yeast), UniProt P10613); experiment: Inhibition of CYP51 in Candida albicans ATCC SC5314 assessed as ergosterol level at 0.5 ug/ml after 16 hrs by GC-MS analysis (reference value: 98.3%); set-up: scale not given: the % may be the effect or the level left; conditions: candida albicans sc5314, 16 h, at 0.5 µg/mL
T1 sequence (P10613 whole entry): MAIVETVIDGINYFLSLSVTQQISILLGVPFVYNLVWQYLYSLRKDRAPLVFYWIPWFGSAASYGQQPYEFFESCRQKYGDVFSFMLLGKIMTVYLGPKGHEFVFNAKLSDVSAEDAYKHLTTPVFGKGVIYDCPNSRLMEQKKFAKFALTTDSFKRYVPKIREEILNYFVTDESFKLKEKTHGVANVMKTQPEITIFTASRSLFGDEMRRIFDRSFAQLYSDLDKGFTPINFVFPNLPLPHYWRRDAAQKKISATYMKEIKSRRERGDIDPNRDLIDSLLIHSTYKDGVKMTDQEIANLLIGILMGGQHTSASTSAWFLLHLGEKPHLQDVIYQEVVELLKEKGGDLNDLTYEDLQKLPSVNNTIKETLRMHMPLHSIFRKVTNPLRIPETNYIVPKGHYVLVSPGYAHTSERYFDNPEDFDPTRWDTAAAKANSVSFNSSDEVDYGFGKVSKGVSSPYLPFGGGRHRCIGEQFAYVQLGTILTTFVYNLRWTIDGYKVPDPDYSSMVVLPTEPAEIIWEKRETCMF

[2] = target: T1, Lanosterol 14-alpha demethylase; experiment: Inhibition of CYP51 in Candida albicans ATCC SC5314 assessed as Eburicol level at […] ug/ml after 16 hrs by GC-MS analysis (reference value: 0%); set-up: scale not given: the % may be the effect or the level left; conditions: candida albicans sc5314, 16 h, dose 0.125 µg/ml
[3] = target: T1, Lanosterol 14-alpha demethylase; experiment: Inhibition of CYP51 in Candida albicans ATCC SC5314 assessed as Obtusifoliol level at 2 ug/ml after 16 hrs by GC-MS analysis (reference value: 0%); set-up: scale not given: the % may be the effect or the level left; conditions: candida albicans sc5314, 16 h, at 2 µg/mL
Candida albicans [4] = experiment: Antifungal activity against fluconazole-resistant Candida albicans 17# assessed as inhibition of microbial growth after 24 hrs by broth microdilution method; type: functional
Candida albicans [5] = experiment: Antifungal activity against fluconazole-resistant Candida albicans 901 assessed as inhibition of microbial growth after 24 hrs by broth microdilution method; type: functional
[6] = target: T1, Lanosterol 14-alpha demethylase; experiment: Inhibition of CYP51 in Candida albicans ATCC SC5314 assessed as Obtusifoliol level at 0.03125 ug/ml after 16 hrs by GC-MS analysis (reference value: 0%); set-up: scale not given: the % may be the effect or the level left; conditions: candida albicans sc5314, 16 h, at 0.03125 µg/mL
Candida albicans [7] = experiment: Antifungal activity against Candida albicans CPCC400616 measured after 24 hrs by broth microdilution assay; type: functional
[8] = target: T1, Lanosterol 14-alpha demethylase; experiment: Inhibition of CYP51 in Candida albicans ATCC SC5314 assessed as ergosterol level at […] ug/ml after 16 hrs by GC-MS analysis (reference value: 98.3%); set-up: scale not given: the % may be the effect or the level left; conditions: candida albicans sc5314, 16 h, dose 0.125 µg/ml
Candida parapsilosis = experiment: Antifungal activity against Candida parapsilosis ATCC 22019 measured after 24 hrs by broth microdilution assay; type: functional; conditions: Lodderomyces parapsilosis
Candida albicans [9] = experiment: Antifungal activity against Candida albicans ATCC SC5314 measured after 24 hrs by broth microdilution assay; type: functional
[Candida] zeylanoides = Antifungal activity against Candida zeylanoides CMGCC2.3739 measured after 24 hrs by broth microdilution assay; type: functional; conditions: Dujonia zeylanoides
[10] = target: T1, Lanosterol 14-alpha demethylase; experiment: Inhibition of CYP51 in Candida albicans ATCC SC5314 assessed as Obtusifoliol level at 8 ug/ml after 16 hrs by GC-MS analysis (reference value: 0%); set-up: scale not given: the % may be the effect or the level left; conditions: candida albicans sc5314, 16 h, at 8 µg/mL
Nakaseomyces glabratus = experiment: Antifungal activity against Candida glabrata measured after 24 hrs by broth microdilution assay; type: functional
[11] = target: T1, Lanosterol 14-alpha demethylase; experiment: Inhibition of CYP51 in Candida albicans ATCC SC5314 assessed as lanosterol level at […] ug/ml after 16 hrs by GC-MS analysis (reference value: 1.7%); set-up: scale not given: the % may be the effect or the level left; conditions: candida albicans sc5314, 16 h, dose 0.125 µg/ml
[12] = target: T1, Lanosterol 14-alpha demethylase; experiment: Inhibition of CYP51 in Candida albicans ATCC SC5314 assessed as Eburicol level at 0.5 ug/ml after 16 hrs by GC-MS analysis (reference value: 0%); set-up: scale not given: the % may be the effect or the level left; conditions: candida albicans sc5314, 16 h, at 0.5 µg/mL
[13] = target: T1, Lanosterol 14-alpha demethylase; experiment: Inhibition of CYP51 in Candida albicans ATCC SC5314 assessed as Obtusifoliol level at […] ug/ml after 16 hrs by GC-MS analysis (reference value: 0%); set-up: scale not given: the % may be the effect or the level left; conditions: candida albicans sc5314, 16 h, dose 0.125 µg/ml
[14] = target: T1, Lanosterol 14-alpha demethylase; experiment: Inhibition of CYP51 in Candida albicans ATCC SC5314 assessed as Obtusifoliol level at 0.5 ug/ml after 16 hrs by GC-MS analysis (reference value: 0%); set-up: scale not given: the % may be the effect or the level left; conditions: candida albicans sc5314, 16 h, at 0.5 µg/mL
Candida albicans [15] = experiment: Antifungal activity against fluconazole-resistant Candida albicans 904 assessed as inhibition of microbial growth after 24 hrs by broth microdilution method; type: functional
[16] = target: T1, Lanosterol 14-alpha demethylase; experiment: Inhibition of CYP51 in Candida albicans ATCC SC5314 assessed as lanosterol level at 2 ug/ml after 16 hrs by GC-MS analysis (reference value: 1.7%); set-up: scale not given: the % may be the effect or the level left; conditions: candida albicans sc5314, 16 h, at 2 µg/mL
[17] = target: T1, Lanosterol 14-alpha demethylase; experiment: Inhibition of CYP51 in Candida albicans ATCC SC5314 assessed as ergosterol level at 0.03125 ug/ml after 16 hrs by GC-MS analysis (reference value: 98.3%); set-up: scale not given: the % may be the effect or the level left; conditions: candida albicans sc5314, 16 h, at 0.03125 µg/mL
[18] = target: T1, Lanosterol 14-alpha demethylase; experiment: Inhibition of CYP51 in Candida albicans ATCC SC5314 assessed as Eburicol level at 0.03125 ug/ml after 16 hrs by GC-MS analysis (reference value: 0%); set-up: scale not given: the % may be the effect or the level left; conditions: candida albicans sc5314, 16 h, at 0.03125 µg/mL
[19] = target: T1, Lanosterol 14-alpha demethylase; experiment: Inhibition of CYP51 in Candida albicans ATCC SC5314 assessed as Eburicol level at 8 ug/ml after 16 hrs by GC-MS analysis (reference value: 0%); set-up: scale not given: the % may be the effect or the level left; conditions: candida albicans sc5314, 16 h, at 8 µg/mL
Candida albicans [20] = experiment: Antifungal activity against fluconazole-resistant Candida albicans 632 assessed as inhibition of microbial growth after 24 hrs by broth microdilution method; type: functional
Candida albicans [21] = experiment: Anti-biofilm activity in Candida albicans CPCC400616 assessed as inhibition of biofilm formation incubated for 24 hrs with 24 hrs precultured fungal suspension by XTT assay; type: functional
Aspergillus fumigatus = experiment: Antifungal activity against Aspergillus fumigatus CMGCC3.7795 measured after 72 hrs by broth microdilution assay; type: functional
Candida albicans [22] = experiment: Antifungal activity against Candida albicans ATCC SC5314 infected in mouse model of candidiasis assessed as reduction in kidney fungal burden at 0.6 mg/kg/day, ip dosed at 2 hrs post infection and dosed for 4 days; type: functional, organism-based; conditions: time 4.0 day
[23] = target: T1, Lanosterol 14-alpha demethylase; experiment: Inhibition of CYP51 in Candida albicans ATCC SC5314 assessed as ergosterol level at 8 ug/ml after 16 hrs by GC-MS analysis (reference value: 98.3%); set-up: scale not given: the % may be the effect or the level left; conditions: candida albicans sc5314, 16 h, at 8 µg/mL
Candida albicans [24] = experiment: Antifungal activity against fluconazole-resistant Candida albicans CaR assessed as inhibition of microbial growth after 24 hrs by broth microdilution method; type: functional
[25] = target: T1, Lanosterol 14-alpha demethylase; experiment: Inhibition of CYP51 in Candida albicans ATCC SC5314 assessed as Eburicol level at 2 ug/ml after 16 hrs by GC-MS analysis (reference value: 0%); set-up: scale not given: the % may be the effect or the level left; conditions: candida albicans sc5314, 16 h, at 2 µg/mL
[26] = target: T1, Lanosterol 14-alpha demethylase; experiment: Inhibition of CYP51 in Candida albicans ATCC SC5314 assessed as lanosterol level at 8 ug/ml after 16 hrs by GC-MS analysis (reference value: 1.7%); set-up: scale not given: the % may be the effect or the level left; conditions: candida albicans sc5314, 16 h, at 8 µg/mL
[27] = target: T1, Lanosterol 14-alpha demethylase; experiment: Inhibition of CYP51 in Candida albicans ATCC SC5314 assessed as lanosterol level at 0.5 ug/ml after 16 hrs by GC-MS analysis (reference value: 1.7%); set-up: scale not given: the % may be the effect or the level left; conditions: candida albicans sc5314, 16 h, at 0.5 µg/mL
[28] = target: T1, Lanosterol 14-alpha demethylase; experiment: Inhibition of CYP51 in Candida albicans ATCC SC5314 assessed as lanosterol level at 0.03125 ug/ml after 16 hrs by GC-MS analysis (reference value: 1.7%); set-up: scale not given: the % may be the effect or the level left; conditions: candida albicans sc5314, 16 h, at 0.03125 µg/mL
[29] = target: T1, Lanosterol 14-alpha demethylase; experiment: Inhibition of CYP51 in Candida albicans ATCC SC5314 assessed as ergosterol level at 2 ug/ml after 16 hrs by GC-MS analysis (reference value: 98.3%); set-up: scale not given: the % may be the effect or the level left; conditions: candida albicans sc5314, 16 h, at 2 µg/mL
Pichia kudriavzevii = experiment: Antifungal activity against Candida krusei AS2.1045 measured after 24 hrs by broth microdilution assay; type: functional
Cryptococcus neoformans = experiment: Antifungal activity against Cryptococcus neoformans CMGCC2.3161 measured after 72 hrs by broth microdilution assay; type: functional

OC(Cn1cncn1)(Cn1cncn1)c1ccc(F)cc1F [FLUCONAZOLE]
Activity [1]: 78.9% | Activity [2]: 5.3% | Activity [3]: 9.5% | MIC (Candida albicans [4]): 128 µg/mL | MIC (Candida albicans [5]): > 128 µg/mL | Activity [6]: 1% | MIC (Candida albicans [7]): 4 µg/mL (≈ 13.1 µM) | Activity [8]: 80.8% | MIC (Candida parapsilosis): 4 µg/mL (≈ 13.1 µM) | MIC (Candida albicans [9]): 1 µg/mL (≈ 3.27 µM) | MIC ([Candida] zeylanoides): 4 µg/mL (≈ 13.1 µM) | Activity [10]: 11.4% | MIC (Nakaseomyces glabratus): 32 µg/mL (≈ 104 µM) | Activity [11]: 12.4% | Activity [12]: 6.7% | Activity [13]: 1.6% | Activity [14]: 2.9% | MIC (Candida albicans [15]): > 128 µg/mL | Activity [16]: 7.2% | Activity [17]: 86.34% | Activity [18]: 2.9% | Activity [19]: 70.3% | MIC (Candida albicans [20]): > 128 µg/mL | MIC (Candida albicans [21]): > 1020 µg/mL | MIC (Aspergillus fumigatus): > 128 µg/mL | Activity (Candida albicans [22]): Active | Activity [23]: 4.2% | MIC (Candida albicans [24]): > 128 µg/mL | Activity [25]: 63.5% | Activity [26]: 14.1% | Activity [27]: 11.6% | Activity [28]: 9.8% | Activity [29]: 19.8% | MIC (Pichia kudriavzevii): 32 µg/mL (≈ 104 µM) | MIC (Cryptococcus neoformans): 4 µg/mL (≈ 13.1 µM)
